Data as given in DBAASP.
Converted amounts (≈) assume the structure as drawn. One block for each compound: values may come before it.

How the values were obtained:
Assay in all cases: ≥ marks a high value that may be exact or a test limit, other limits are often not marked, values filed in µg/mL are converted to µM
[1] = system: Pectobacterium carotovorum
Botrytis cinerea = system: Botrytis cinerea
Fusarium culmorum = system: Fusarium culmorum
Aerococcus viridans = system: Aerococcus viridans
Micrococcus luteus = system: Micrococcus luteus
Neurospora crassa = system: Neurospora crassa
Escherichia coli D22 = system: Escherichia coli D22
Ascochyta pisi = system: Ascochyta pisi
Escherichia coli 1106 = system: Escherichia coli 1106
Fusarium oxysporum = system: Fusarium oxysporum
Alternaria brassicicola = system: Alternaria brassicicola
Enterobacter cloacae = system: Enterobacter cloacae
Escherichia coli D31 = system: Escherichia coli D31
Fusarium haematococcum = system: Fusarium haematococcum
Salmonella typhimurium = system: Salmonella typhimurium
Bacillus megaterium = system: Bacillus megaterium
Klebsiella pneumoniae = system: Klebsiella pneumoniae
Trichoderma viride = system: Trichoderma viride
Pseudomonas aeruginosa = system: Pseudomonas aeruginosa
Pediococcus acidilactici = system: Pediococcus acidilactici
Bacillus subtilis = system: Bacillus subtilis
[2] = system: Enterococcus faecalis 981
[3] = system: Staphylococcus aureus ATCC 25923
[4] = system: Psychrobacter faecalis X29
[5] = system: Nocardia asteroides 201118
Candida glabrata 090902 = system: Candida glabrata 090902
[6] = system: Enterococcus faecalis V583
[7] = system: Escherichia coli ATCC 25922
Staphylococcus sciuri = system: Staphylococcus sciuri
Escherichia coli O111 = system: Escherichia coli O111
[8] = system: Staphylococcus aureus ATCC 29213
Rothia nasimurium = system: Rothia nasimurium
[9] = system: Listeria monocytogenes ATCC 19111
[10] = system: Escherichia coli MTCC 0723
[11] = system: Pseudomonas aeruginosa NCDC 0105
[12] = system: Pseudomonas aeruginosa ATCC 27853
[13] = system: Staphylococcus aureus NCDC 0111
[14] = system: Bacillus cereus NCDC 0240
[15] = system: Salmonella enterica subsp. enterica serovar Typhimurium ATCC 14028
[16] = system: Acinetobacter johnsonii NCDC 0072

MIC [1]: 28.3 µM (≈ 61.1 µg/mL) | MIC (Botrytis cinerea): 1.73 µM (≈ 3.74 µg/mL) | MIC (Fusarium culmorum): 7.07 µM (≈ 15.3 µg/mL) | MIC (Aerococcus viridans): 0.849 µM (≈ 1.83 µg/mL) | MIC (Micrococcus luteus): 1.73 µM (≈ 3.74 µg/mL) | MIC (Neurospora crassa): 3.54 µM (≈ 7.64 µg/mL) | MIC (Escherichia coli D22): 0.424 µM (≈ 0.917 µg/mL) | MIC (Ascochyta pisi): 14.1 µM (≈ 30.6 µg/mL) | MIC (Escherichia coli 1106): 0.849 µM (≈ 1.83 µg/mL) | MIC (Fusarium oxysporum): 28.3 µM (≈ 61.1 µg/mL) | MIC (Alternaria brassicicola): 3.54 µM (≈ 7.64 µg/mL) | MIC (Enterobacter cloacae): 1.73 µM (≈ 3.74 µg/mL) | MIC (Escherichia coli D31): 0.424 µM (≈ 0.917 µg/mL) | MIC (Fusarium haematococcum): 7.07 µM (≈ 15.3 µg/mL) | MIC (Salmonella typhimurium): 1.73 µM (≈ 3.74 µg/mL) | MIC (Bacillus megaterium): 3.54 µM (≈ 7.64 µg/mL) | MIC (Klebsiella pneumoniae): 1.73 µM (≈ 3.74 µg/mL) | MIC (Trichoderma viride): 3.54 µM (≈ 7.64 µg/mL) | MIC (Pseudomonas aeruginosa): 28.3 µM (≈ 61.1 µg/mL) | MIC (Pediococcus acidilactici): 28.3 µM (≈ 61.1 µg/mL) | MIC (Bacillus subtilis): 28.3 µM (≈ 61.1 µg/mL)
Structure (SMILES): CC[C@H](C)[C@H](NC(=O)[C@@H](NC(=O)[C@@H]1CCCN1C(=O)[C@@H](NC(=O)[C@@H]1CCCN1C(=O)[C@@H](N)CCCCN)C(C)C)[C@@H](C)CC)C(=O)N[C@@H](Cc1ccc(O)cc1)C(=O)N[C@H]1CSSC[C@@H](C(=O)N[C@@H](CCC(N)=O)C(=O)N[C@@H](CCCN=C(N)N)C(=O)N[C@@H](CCSC)C(=O)O)NC(=O)[C@H](CCCCN)NC(=O)CNC(=O)[C@H]([C@@H](C)O)NC(=O)[C@H](CCCN=C(N)N)NC(=O)[C@H](CCCN=C(N)N)NC(=O)[C@H](CC(N)=O)NC1=O [KPVPIIYCNRRTGKCQRM]

MIC [2]: 6.3 µM (≈ 15.5 µg/mL) | MIC [3]: 12.5 µM (≈ 30.7 µg/mL) | MIC [4]: ≥ 50 µM | MIC [5]: 6.3 µM (≈ 15.5 µg/mL) | MIC (Candida glabrata 090902): 12.5 µM (≈ 30.7 µg/mL)
Structure (SMILES): CC[C@H](C)[C@H](NC(=O)[C@H](CC(C)C)NC(=O)CNC(=O)[C@@H]1CCCN1C(=O)[C@H](CC(C)C)NC(=O)[C@@H](N)Cc1ccccc1)C(=O)N[C@@H](CCCCN)C(=O)N[C@@H](C)C(=O)N[C@@H](C)C(=O)N[C@H](C(=O)NCC(=O)N[C@H](C(=O)NCC(=O)N[C@@H](CO)C(=O)N[C@H](C(=O)N[C@H](C(=O)N[C@@H](CC(C)C)C(=O)N[C@H]1CSSC[C@@H](C(=O)O)NC(=O)[C@H](CCCCN)NC(=O)[C@H](CCCCN)NC(=O)[C@H]([C@@H](C)O)NC(=O)[C@H]([C@@H](C)CC)NC(=O)[C@H](CCCCN)NC1=O)[C@@H](C)CC)[C@@H](C)O)C(C)C)C(C)C [FLPGLIKAAVGVGSTILCKITKKC]

MIC [6]: ≥ 133 µM
Structure (SMILES): CC[C@H](C)[C@H](N)C(=O)N[C@H](C(=O)N[C@@H](CO)C(=O)N[C@@H](CO)C(=O)N[C@@H](CCSC)C(=O)N[C@@H](Cc1ccccc1)C(=O)N[C@H](C(=O)N[C@@H](CO)C(=O)N[C@@H](C)C(=O)O)C(C)C)C(C)C [IVSSMFVSA]

MIC [7]: 82.3 µM (≈ 50 µg/mL) | MIC (Aerococcus viridans): ≥ 32.9 µM | MIC (Staphylococcus sciuri): ≥ 82.3 µM | MIC (Klebsiella pneumoniae): 82.3 µM (≈ 50 µg/mL) | MIC (Escherichia coli O111): ≥ 82.3 µM | MIC [8]: 16.5 µM (≈ 10 µg/mL) | MIC (Pseudomonas aeruginosa): 82.3 µM (≈ 50 µg/mL) | MIC (Rothia nasimurium): 16.5 µM (≈ 10 µg/mL)
Structure (SMILES): N[C@@H](CC(=O)O)C(=O)N[C@@H](CCC(=O)O)C(=O)N[C@@H](CC(=O)O)C(=O)N[C@@H](CC(=O)O)C(=O)N[C@@H](CC(=O)O)C(=O)O [DEDDD]

MIC [9]: 1.5 µM (≈ 2.63 µg/mL) | MIC [10]: ≥ 50 µM | MIC [11]: ≥ 200 µM | MIC [12]: 200 µM (≈ 351 µg/mL) | MIC [13]: 12.5 µM (≈ 21.9 µg/mL) | MIC [14]: ≥ 50 µM | MIC [15]: 3 µM (≈ 5.26 µg/mL) | MIC [16]: 25 µM (≈ 43.9 µg/mL) | MIC [8]: 0.8 µM (≈ 1.4 µg/mL)
Structure (SMILES): CC[C@H](C)[C@H](NC(=O)[C@H](CO)NC(=O)[C@H](Cc1c[nH]c2ccccc12)NC(=O)[C@@H]1CCCN1C(=O)[C@@H](NC(=O)[C@H](C)N)[C@@H](C)CC)C(=O)N[C@@H](Cc1c[nH]c2ccccc12)C(=O)N[C@@H](Cc1c[nH]c2ccccc12)C(=O)N[C@@H](Cc1cnc[nH]1)C(=O)N[C@@H](CC(C)C)C(=O)N[C@@H](CC(C)C)C(=O)N[C@@H](Cc1ccccc1)C(=O)N[C@@H](CCCCN)C(=O)NCC(=O)O [AIPWSIWWHLLFKG]
